Results published in US5750562A (priority 1995, dated 1998).

Experiments:
L1210 (murine leukemia) = assay: Cytotoxicity, L1210 (murine leukemia); format: cell-based; conditions: Mus musculus, exposition time 48 h, RPMI 1640 + 20 mM HEPES + 2 mM L-glutamine
A121 (human ovarian) = assay: Cytotoxicity, A121 (human ovarian); format: cell-based; conditions: exposition time 72 h, RPMI 1640 + 20 mM HEPES + 2 mM L-glutamine
Procedure: (§1) IC50 s of compounds 10, 11and paclitaxel on 6 human
(§2) Standard conditions: basal medium RPMI 1640 + 20 mM HEPES + 2 mM

A549 (human NSCLC) = assay: Cytotoxicity, A549 (human NSCLC); format: cell-based; conditions: exposition time 72 h, RPMI 1640 + 20 mM HEPES + 2 mM L-glutamine
Procedure: as §1, §2

HT-29 (human colon) = assay: Cytotoxicity, HT-29 (human colon); format: cell-based; conditions: exposition time 72 h, RPMI 1640 + 20 mM HEPES + 2 mM L-glutamine
Procedure: as §1, §2

MCF7 (human breast) = assay: Cytotoxicity, MCF7 (human breast); format: cell-based; conditions: exposition time 72 h, RPMI 1640 + 20 mM HEPES + 2 mM L-glutamine
Procedure: as §1, §2

tumours = assay: Anti-tumoral activity (general statement); conditions: in words, among the compounds of formula 1
MCF7-ADR (resistant) = assay: cells; format: cell-based; conditions: Homo sapiens, NCI/ADR-RES, 72 h
human tumours = conditions: background art, cited from earlier work
Cardiotoxic activity = conditions: in words, compared with taxol and its known derivatives

SMILES | IC50 (L1210 (murine leukemia)) [nM] | IC50 (A121 (human ovarian)) [nM] | IC50 (A549 (human NSCLC)) [nM] | IC50 (HT-29 (human colon)) [nM] | IC50 (MCF7 (human breast)) [nM] | activity (tumours) | IC50 (MCF7-ADR (resistant)) [nM] | anticancerogenic activity (human tumours; different forms of human tumours) | resistance induction (human tumours) | side-effects in clinical use (human tumours) | cardiotoxic activity (Cardiotoxic activity)
CC(=O)O[C@@]12CO[C@@H]1C[C@H](O)[C@@]1(C)C(=O)C(=O)C3=C(C)[C@@H](OC(=O)[C@H](O)[C@H](CC(C)C)NC(=O)OC(C)(C)C)[C@@H]4OC(=O)O[C@]4([C@@H](OC(=O)c4ccccc4)[C@H]21)C3(C)C [Compound 11, 13=[(2R,3S)-3-ter-butoxycarbonylamino-2-hydroxy-3-isobutyl-propanoyl]-10-dehydro-10-deacetyl-14β-hydroxy-baccatine III 1,14-carbonate] | 2 ± 0.1 | 1.6 ± 0.2 | 2.1 ± 0.3 | 0.6 ± 0.4 | 0.8 ± 0.2 | particularly active | – | – | – | – | –
CC(=O)O[C@H]1C(=O)[C@@]2(C)[C@H]([C@H](OC(=O)c3ccccc3)[C@]3(O)C[C@H](OC(=O)[C@H](O)[C@@H](NC(=O)c4ccccc4)c4ccccc4)C(C)=C1C3(C)C)[C@]1(OC(C)=O)CO[C@@H]1C[C@@H]2O [Paclitaxel, reference compound] | 7 ± 3 | 3.7 ± 0.3 | 5.4 ± 0.5 | 6 ± 0.6 | 4.3 ± 0.1 | – | 395 ± 8.7 | anticancerogenic activity on different forms of human tumours | induces resistance quickly | serious side-effects | contrary to taxol
CC(=O)O[C@@]12CO[C@@H]1C[C@H](O)[C@@]1(C)C(=O)C(=O)C3=C(C)[C@@H](OC(=O)[C@H](O)[C@H](CC(C)C)NC(=O)OC(C)(C)C)C[C@@](O)([C@@H](OC(=O)c4ccccc4)[C@H]21)C3(C)C [Compound 10, 13-[(2R,3S)-3-ter-butoxycarbonylamino-2-hydroxy3-isobutyl-propanoyl]-10-deacetyl-10-dehydro-baccatine III] | 0.6 ± 0.1 | 0.8 ± 0.3 | 1.9 ± 0.3 | 0.4 ± 0.1 | 1.2 ± 0.2 | particularly active | – | – | – | – | –
CCCCCC(=O)N[C@@H](CC(C)C)[C@@H](O)C(=O)O[C@@H]1C(C)=C2C(=O)C(=O)[C@@]3(C)[C@H]([C@H](OC(=O)c4ccccc4)[C@@]4(OC(=O)O[C@@H]14)C2(C)C)[C@]1(OC(C)=O)CO[C@@H]1C[C@@H]3O [Compound 12, 13-[(2R,3S)-3-caproylamino-2-hydroxy-3-isobutyl-propanoyl]-10-dehydro-10-deacetyl 14β-hydroxy-baccatine III 1,14-carbonate] | – | – | – | – | – | particularly active | – | – | – | – | –
